Publication PMC4233664, “Synergistic Effects of Clopidogrel and Fufang Danshen Dripping Pills by Modulation of the Metabolism Target and Pharmacokinetics” (Evidence-based Complementary and Alternative Medicine : eCAM, 2014)
Blank lines part the entries; values can stand above or below the compound they belong to.

Columns and labels:
[1] = Pharmacokinetic study of CPGS in rat plasma after oral clopidogrel alone or with FDDP; format: in vivo, SD rats
Protocol: Analyses were performed using the Agilent HPLC 1100 system (Agilent, USA) consisting of a quat pump (G1311A), an autosampler (G1313A), and an online degasser (G1322A). The chromatographic separation was performed on an Agilent Zorbax SB C18 column (4.6 mm × 250 mm, 5 μm). A simple gradient method was used, in which the percentage of acetonitrile-buffer (0.2% phosphoric acid in water) was varied as shown in Table 1 at a flow rate of 1.0 mL/min. The injection volume was 10 μL. The total LC run time was 12 min with the column temperature kept at 30°C and the detection at a wavelength of 220 nm.
An aliquot of 10 μL 1 M hydrochloric acid (HCL), 100 μL blood plasma, and 10 μL of IS (160 μg/mL) was added into a 1.5 mL centrifuge tube. After vortex-mixing for 1 min, 1 mL of extraction solvent (ethyl acetate-dichloromethane; 4 : 1, V/V) was added and vortexed vigorously for 4 min, followed by centrifugation for 12 min at 12000 rpm. Next, 950 μL of supernatant was transferred into another tube and evaporated to dryness at 40°C for 90 min under a gentle stream of nitrogen. The residue was reconstituted with 100 μL of the mobile phase and vortexed for 1 min and then centrifuged for 5 min at 12000 rpm. For analysis, 10 μL of the supernatant was injected onto the HPLC system. The plasma concentrations of the analytes exceeded the upper limit of quantification, and therefore the sample was diluted with blank plasma and vortexed for 1 min. A 100 μL aliquot of diluted sample was processed under the same sample pretreatment procedure as mentioned above.
The preclinical pharmacokinetic study was based on 16 SD rats. The investigation was approved by the Animal Ethics Committee of the Nanjing University of Traditional Chinese Medicine. Two groups of 8 rats each were used according to a parallel study. The clopidogrel-only group received 30 mg/kg oral administration of clopidogrel. The combination group (clopidogrel 30 mg/kg + FDDP 324 mg/kg) received their dose administered as a combination. The rats fasted for 12 h prior to the experiment, while free access to water remained. Plasma samples were collected at 0, 0.25, 0.5, 1, 1.5, 2.3, 4, 6, 8, 10, 12, and 24 h after dosing. Blood samples of 400 μL were obtained via an in-dwelling catheter in the caudal vein and collected into heparinized tubes. Then, the plasma was centrifuged for 10 min at 4000 rpm and the supernatant was transferred to labelled plastic vials at −80°C until the completion of the analysis.
Pharmacokinetic parameters were calculated using Drug and Statistic (DAS) 3.0 pharmacokinetic software (Chinese Pharmacological Association, Anhui, China). The pharmacokinetic parameters included the compartment parameters and statistical parameters (Table 6).
The area under the plasma concentration-time curve (AUC) was calculated using the linear trapezoidal rule. The elimination rate constant (kel) was calculated by linear regression of the terminal points of the semilog plot of the plasma concentration against time. The half-life of drug elimination during the terminal phase (t 1/2) was calculated from the formula t 1/2 = 0.693/kel. Mean residence time (MRT) was calculated as AUMC/AUC, where AUMC is the area under the first moment of the plasma concentration-time curve. The volume of distribution (Vd) of the central compartment was calculated as dose/C 0, where C 0 is the concentration measured just after the administration. Plasma clearance (CL) was calculated as dose/AUC.

[2] = Stability of CPGS in plasma samples (HPLC method validation); format: physicochemical, rat
Protocol: Stability experiments were performed to evaluate the analyte stability in stock solutions and in plasma samples under different conditions. Room temperature stability, refrigerated stability of extracted sample, freeze-thaw stability, and long-term stability were performed using three replicates at each QC level.

[3] = system: carboxyl esterase 1 (CES1); conditions: in the liver; cited from earlier work
cytochrome P450 (CYP) = conditions: cited from earlier work
antiplatelet responses = conditions: conventional doses of clopidogrel; cited from earlier work
[4] = CPGS in rat plasma, clopidogrel 30 mg/kg intragastric, administered alone, 21 days
[5] = CPGS in rat plasma, coadministration clopidogrel 30 mg/kg + FDDP 324 mg/kg intragastric, 21 days
[6] = CPGS in rat plasma, coadministration clopidogrel 30 mg/kg + FDDP 324 mg/kg intragastric, 21 days, P < 0.05 vs clopidogrel-only
[7] = combination vs clopidogrel alone, rats
[8] = combination vs clopidogrel-only group, rats
[9] = combination vs clopidogrel-only group, rats, not statistically significant

AUC (0–tn) [1, 4]: 90.529 ± 18.557 mg/L∗h
AUC (0–∞) [1, 4]: 104.965 ± 24.367 mg/L∗h
CL/F [1, 4]: 5.15 ± 2.08 mL/min/kg
Ka [1, 4]: 6.807 ± 6.698
MAT [1, 4]: 13.336 ± 2.566 h
MRT (0–tn) [1, 4]: 7.453 ± 0.747 h
MRT (0–∞) [1, 4]: 11.359 ± 2.022 h
T1/2β [1, 4]: 14.788 ± 14.311 h
T max [1, 4]: 1.208 ± 0.332 h
V/F [1, 4]: 5.079 ± 2.153 L/kg
AUC (0–tn) [1, 5]: 70.314 ± 35.213 mg/L∗h
AUC (0–∞) [1, 5]: 76.324 ± 39.971 mg/L∗h
C max [1, 5]: 10146 ± 4848 ng/mL
CL/F [1, 5]: 7.58 ± 3.07 mL/min/kg
Ka [1, 5]: 2.519 ± 3.073
MRT (0–tn) [1, 5]: 6.871 ± 0.741 h
T1/2β [1, 5]: 19.495 ± 18.931 h
T max [1, 5]: 1.583 ± 0.376 h
V/F [1, 5]: 9.987 ± 9.820 L/kg
MAT [1, 6]: 8.198 ± 3.556 h
MRT (0–∞) [1, 6]: 8.854 ± 1.873 h
Change of area under the curve of CPGS by FDDP [1, 7]: decreased
Change of peak plasma concentration of CPGS by FDDP [1, 7]: decreased
Change of MAT of CPGS in the combination group [1, 8]: greater degrees of decline
Change of MRT (0-∞) of CPGS in the combination group [1, 8]: greater degrees of decline
Change of CL/F of CPGS in the combination group [1, 9]: slightly higher
Change of T max of CPGS in the combination group [1, 9]: slightly higher
Pharmacokinetic model describing CPGS ([1]; rat plasma after clopidogrel alone or with FDDP): two-compartment open model
Stability in extracted plasma samples ([2]; 24 h at room temperature): stable
Long-term stability of spiked plasma samples ([2]; stored at −20°C, 20 days): stable
SMILES: O=C(O)[C@H](c1ccccc1Cl)N1CCc2sccc2C1 [CPGS]

SMILES: COC(=O)[C@H](c1ccccc1Cl)N1CCc2sccc2C1 [clopidogrel]
Share of absorbed parent drug transformed by CES1 into inactive carboxylic acid derivative (CPGS) [3]: 85%
Share of absorbed clopidogrel dose transformed by CYP into thiol metabolite (cytochrome P450 (CYP)): 15%
Patients displaying inadequate antiplatelet responses (antiplatelet responses): 5–40%
